Among the test systems are DLD-1; DMS-114; DMS-273; HOP-18; KM-20L2; M19-MEL; SNB-78; XF498.
Common to all, as to assay: NCI anticancer screen, dose series, 48 h

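Briefly, cells in 96-well plates were exposed to five compound concentrations for 48 h, and endpoints were estimated by linear interpolation. At the GI50, growth is halved.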 The source made the active and inactive calls. Cut-off read from the data, not from the text of the source: active = GI50 up to about 1.1 µM and inactive = higher. A value given as a limit tells only on which side of the number the result lay.

With `COC(=O)c1ccc(NCc2cc(O)ccc2O)cc1`, the GI50 in the experiment on DLD-1 is 18.1 µM (inactive); in the experiment with DMS-114, 3.52 µM (inactive); in the experiment with DMS-273, 24.7 µM (inactive); with HOP-18, 14.2 µM (inactive); in the experiment with KM-20L2, 28.4 µM (inactive); with M19-MEL it was 16.7 µM (inactive). The GI50 with SNB-78 was 15.2 µM (inactive); in the experiment with XF498, 2.96 µM (inactive).
As for `O=C1C=CC(=O)c2c1c1c(c3c2C2c4ccccc4C3c3ccccc32)C2c3ccccc3C1c1ccccc12`, the GI50 with DLD-1 was 0.982 µM (active); in the experiment with DMS-114, 1.95 µM (inactive); in the experiment on DMS-273, 2.11 µM (inactive); in the experiment on KM-20L2, 4.46 µM (inactive); in the experiment with M19-MEL, 1.98 µM (inactive); with SNB-78 it was 1.81 µM (inactive). For the same molecule, in the experiment with XF498, the GI50 is 1.75 µM (inactive).
`Cc1nc(Nc2ccccc2)sc1C(=O)NNc1ccc([N+](=O)[O-])cc1[N+](=O)[O-]`: the GI50 in the experiment on DLD-1 is 25.5 µM (inactive); in the experiment on DMS-114, 23.3 µM (inactive); in the experiment on DMS-273, 25.7 µM (inactive); in the experiment on HOP-18, 21.5 µM (inactive); in the experiment with KM-20L2, 24.7 µM (inactive); in the experiment on M19-MEL, 36 µM (inactive). Moreover, the GI50 in the experiment on SNB-78 was 49.2 µM (inactive); in the experiment with XF498 it was 24.3 µM (inactive).
In the case of `O=C1Nc2ccccc2C12CCCC2`, the GI50 in the experiment on DLD-1, with DMS-114, with DMS-273, in the experiment with HOP-18, in the experiment on KM-20L2 and in the experiment on M19-MEL was > 100 µM (inactive) each time. Moreover, the GI50 with SNB-78 and in the experiment with XF498 was > 100 µM (inactive) each time.
Regarding `C=C1CC2OC2(C(=O)O[C@H]2CCC3[C@@H]4CCC5=CC(=O)CC[C@]5(C)C4CC[C@@]32C)C1=O` (stereo partly specified), the GI50 with DLD-1 was 2.64 µM (inactive); in the experiment with DMS-114, 5.2 µM (inactive); with DMS-273 it was 4.45 µM (inactive); in the experiment with HOP-18, 5.83 µM (inactive); in the experiment on KM-20L2 it was 7.57 µM (inactive); in the experiment with M19-MEL, 7.57 µM (inactive). Besides, the GI50 was 8.26 µM (inactive) in the experiment on SNB-78 and 5.19 µM (inactive) in the experiment on XF498.
As for `COc1c(C)c2c(c(C)c1Cl)Oc1c(C=O)c(O)c(Cl)c(C)c1C(=O)O2`, the GI50 in the experiment with DLD-1 is 27.7 µM (inactive); with DMS-114 it was 23.3 µM (inactive); in the experiment on DMS-273 it was 22.4 µM (inactive); with KM-20L2, 30.5 µM (inactive); with M19-MEL, 31.3 µM (inactive); with SNB-78, 18.2 µM (inactive). In the experiment with XF498, the GI50 is 2.66 µM (inactive).
For `CC(C)(C)N1CC2(CCCCC2)C1=O`, the GI50 with DLD-1, in the experiment on DMS-114, in the experiment with DMS-273, with HOP-18, in the experiment on KM-20L2 and in the experiment with M19-MEL was > 100 µM (inactive) each time. The GI50 in the experiment on SNB-78 is > 100 µM (inactive).
On to `Cc1cc([N+](=O)[O-])c(C)c2c1[nH]c1ccc(/C(CCC3CCCC3)=N\N)cc12`, for which the GI50 with DMS-114 was 17.6 µM (inactive); with DMS-273 it was 20.2 µM (inactive); in the experiment with HOP-18, 11 µM (inactive); in the experiment on M19-MEL, 19 µM (inactive); in the experiment on SNB-78, 36.5 µM (inactive); with XF498, 14.7 µM (inactive).
As for `CCOC(=O)C(=O)Nc1ccccc1C(F)(F)F`, the GI50 with DLD-1 is > 100 µM (inactive); with DMS-273 it was > 100 µM (inactive); with HOP-18, 0.9 µM (active); in the experiment on KM-20L2 it was > 100 µM (inactive); with SNB-78, > 100 µM (inactive); in the experiment with XF498 it was > 100 µM (inactive).
Regarding `C=C1C(=O)O[C@H](c2ccoc2)C[C@@H]1[C@@]1(C)CCCC2(C)C(=O)OCC21` (stereo partly specified), the GI50 in the experiment with DMS-114, with DMS-273, in the experiment with KM-20L2, in the experiment on M19-MEL, in the experiment on SNB-78 and in the experiment with XF498 was > 100 µM (inactive) in each case.

For the origin of these results see ChEMBL document CHEMBL1201862, “PubChem BioAssay data set” (2004).
